# Source: ChEMBL document CHEMBL1137081, “Conformationally constrained analogues of diacylglycerol. 20. The search for an elusive binding site on protein kinase C through relocation of the carbonyl pharmacophore along the sn-1 side chain of 1,2-diacylglycerol lactones” (J Med Chem, 2004)
# Target: Protein kinase C alpha type (Homo sapiens, UniProt P17252)
# Experiment: Displacement of [20-3H]-phorbol 12,13-dibutyrate (PDBU) from protein kinase C alpha with phosphatidylserine
row,SMILES,Ki [nM]
1,CCCCCCCC(=O)OCCCC1(CO)CC(=CCC(C(C)C)C(C)C)C(=O)O1 (stereo unspecified),1430
2,CCCCCCCCC(=O)OCCC1(CO)C/C(=C\CC(C(C)C)C(C)C)C(=O)O1 (stereo unspecified),459
3,CCCCCCCCC(=O)OCCC1(CO)C/C(=C/CC(C(C)C)C(C)C)C(=O)O1 (stereo unspecified),208
4,CCCCCCCCCOC(=O)CC1(CO)C/C(=C/CC(C(C)C)C(C)C)C(=O)O1 (stereo unspecified),55.7

# The next lines start with the values.
row,Ki [nM],SMILES
1,62.2,CCCCCCCCCOC(=O)CC1(CO)C/C(=C\CC(C(C)C)C(C)C)C(=O)O1 (stereo unspecified)
2,736,CCCCCCCC(=O)OCCCC1(CO)C/C(=C/CC(C(C)C)C(C)C)C(=O)O1 (stereo unspecified)
